The values that follow come from PMC6199744, “Development of Chemical Proteomics for the Folateome and Analysis of the Kinetoplastid Folateome” (ACS Infectious Diseases, 2018).

What all share (format): binding
The target in experiment [1] is T1, HeLa cell extract proteins (Homo sapiens, UniProt P53618).
T1 construct: endogenous in cells; host or cells: HeLa cell extract
T1 sequence (P53618 1-953): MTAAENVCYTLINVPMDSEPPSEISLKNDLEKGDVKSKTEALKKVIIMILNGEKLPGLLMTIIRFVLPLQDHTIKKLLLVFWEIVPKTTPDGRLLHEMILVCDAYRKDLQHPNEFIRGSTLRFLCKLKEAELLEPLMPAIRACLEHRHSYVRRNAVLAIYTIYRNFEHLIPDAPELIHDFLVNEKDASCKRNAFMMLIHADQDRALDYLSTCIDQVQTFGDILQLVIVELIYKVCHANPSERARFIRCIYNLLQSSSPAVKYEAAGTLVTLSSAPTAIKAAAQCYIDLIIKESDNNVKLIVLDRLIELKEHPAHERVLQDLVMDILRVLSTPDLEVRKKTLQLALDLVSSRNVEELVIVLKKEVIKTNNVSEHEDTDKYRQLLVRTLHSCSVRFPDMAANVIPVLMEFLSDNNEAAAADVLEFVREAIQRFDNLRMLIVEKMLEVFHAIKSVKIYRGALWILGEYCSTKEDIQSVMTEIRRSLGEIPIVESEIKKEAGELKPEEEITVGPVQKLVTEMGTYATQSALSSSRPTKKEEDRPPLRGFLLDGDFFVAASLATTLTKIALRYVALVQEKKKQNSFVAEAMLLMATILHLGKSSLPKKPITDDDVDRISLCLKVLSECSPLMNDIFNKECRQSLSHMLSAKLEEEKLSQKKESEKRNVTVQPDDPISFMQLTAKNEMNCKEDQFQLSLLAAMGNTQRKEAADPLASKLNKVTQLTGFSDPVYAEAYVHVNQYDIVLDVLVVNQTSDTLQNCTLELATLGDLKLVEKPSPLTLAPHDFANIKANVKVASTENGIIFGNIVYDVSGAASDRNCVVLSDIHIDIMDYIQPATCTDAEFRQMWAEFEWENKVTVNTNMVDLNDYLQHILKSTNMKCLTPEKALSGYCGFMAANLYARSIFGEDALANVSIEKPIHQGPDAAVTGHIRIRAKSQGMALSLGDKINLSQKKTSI

Experiment [2] addresses T2, HeLa cell extract proteins (Homo sapiens, UniProt P07355).
T2 construct: endogenous in cells; host or cells: HeLa cell extract

Experiment [3] has as its target T3, HeLa cell extract proteins (Homo sapiens, UniProt Q9H903).
T3 construct: endogenous in cells; host or cells: HeLa cell extract
T3 sequence (Q9H903 1-347): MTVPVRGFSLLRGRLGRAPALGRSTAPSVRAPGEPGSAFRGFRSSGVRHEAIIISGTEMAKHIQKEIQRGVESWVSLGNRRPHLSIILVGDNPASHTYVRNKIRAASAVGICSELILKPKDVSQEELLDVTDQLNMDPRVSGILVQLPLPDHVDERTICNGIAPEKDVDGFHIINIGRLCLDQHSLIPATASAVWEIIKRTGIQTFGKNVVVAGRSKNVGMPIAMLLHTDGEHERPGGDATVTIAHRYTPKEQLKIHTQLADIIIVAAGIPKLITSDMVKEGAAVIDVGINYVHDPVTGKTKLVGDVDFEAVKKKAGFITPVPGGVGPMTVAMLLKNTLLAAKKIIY

The target in experiment [4] is T4, HeLa cell extract proteins (Homo sapiens, UniProt Q9Y6D5).
T4 construct: endogenous in cells; host or cells: HeLa cell extract
T4 sequence (Q9Y6D5 whole entry): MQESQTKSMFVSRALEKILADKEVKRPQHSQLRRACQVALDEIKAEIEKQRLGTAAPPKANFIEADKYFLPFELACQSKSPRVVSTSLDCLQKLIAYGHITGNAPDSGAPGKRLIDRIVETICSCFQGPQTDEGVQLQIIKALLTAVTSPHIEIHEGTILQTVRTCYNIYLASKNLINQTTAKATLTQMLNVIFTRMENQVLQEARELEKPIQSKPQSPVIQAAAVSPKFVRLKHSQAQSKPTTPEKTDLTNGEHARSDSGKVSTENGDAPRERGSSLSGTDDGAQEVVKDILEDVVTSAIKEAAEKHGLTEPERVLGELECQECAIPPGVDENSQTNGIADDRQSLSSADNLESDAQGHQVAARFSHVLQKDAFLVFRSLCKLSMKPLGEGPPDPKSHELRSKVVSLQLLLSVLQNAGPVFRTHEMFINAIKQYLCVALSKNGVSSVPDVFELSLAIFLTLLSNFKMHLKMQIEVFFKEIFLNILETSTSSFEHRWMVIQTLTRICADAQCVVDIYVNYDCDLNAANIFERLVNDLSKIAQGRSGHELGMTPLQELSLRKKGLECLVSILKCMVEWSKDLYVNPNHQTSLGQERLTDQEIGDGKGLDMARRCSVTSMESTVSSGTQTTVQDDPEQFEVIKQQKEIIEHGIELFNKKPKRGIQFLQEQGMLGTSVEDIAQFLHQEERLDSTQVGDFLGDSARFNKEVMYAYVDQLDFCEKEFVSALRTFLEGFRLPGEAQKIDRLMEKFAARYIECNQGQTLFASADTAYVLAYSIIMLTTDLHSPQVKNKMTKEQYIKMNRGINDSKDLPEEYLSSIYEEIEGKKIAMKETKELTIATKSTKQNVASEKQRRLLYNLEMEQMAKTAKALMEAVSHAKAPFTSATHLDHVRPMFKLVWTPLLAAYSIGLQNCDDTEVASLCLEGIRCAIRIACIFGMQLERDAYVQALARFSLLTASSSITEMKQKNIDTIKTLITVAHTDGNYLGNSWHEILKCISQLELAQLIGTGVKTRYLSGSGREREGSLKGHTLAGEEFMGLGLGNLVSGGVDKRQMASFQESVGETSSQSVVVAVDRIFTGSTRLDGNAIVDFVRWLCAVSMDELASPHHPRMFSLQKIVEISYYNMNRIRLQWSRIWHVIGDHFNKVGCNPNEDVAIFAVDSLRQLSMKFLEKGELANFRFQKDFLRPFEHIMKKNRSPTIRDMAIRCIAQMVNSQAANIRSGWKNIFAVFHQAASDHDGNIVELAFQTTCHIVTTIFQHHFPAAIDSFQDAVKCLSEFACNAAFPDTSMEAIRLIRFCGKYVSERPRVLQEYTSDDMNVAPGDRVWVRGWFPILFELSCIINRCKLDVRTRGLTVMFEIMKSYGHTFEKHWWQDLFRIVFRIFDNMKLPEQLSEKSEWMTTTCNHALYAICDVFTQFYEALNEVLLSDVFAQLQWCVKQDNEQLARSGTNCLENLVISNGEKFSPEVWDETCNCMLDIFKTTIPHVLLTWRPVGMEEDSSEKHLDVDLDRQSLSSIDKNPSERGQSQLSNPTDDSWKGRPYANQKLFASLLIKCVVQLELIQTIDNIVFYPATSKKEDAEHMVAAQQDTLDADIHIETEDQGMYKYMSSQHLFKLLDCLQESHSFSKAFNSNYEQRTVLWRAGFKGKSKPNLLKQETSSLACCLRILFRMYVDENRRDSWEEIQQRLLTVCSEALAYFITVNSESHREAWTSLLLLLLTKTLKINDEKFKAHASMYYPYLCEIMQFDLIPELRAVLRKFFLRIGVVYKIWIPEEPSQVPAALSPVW

For experiment [5], the target named is T5, HeLa cell extract proteins (Homo sapiens, UniProt P54136).
T5 construct: endogenous in cells; host or cells: HeLa cell extract
T5 sequence (P54136 1-660): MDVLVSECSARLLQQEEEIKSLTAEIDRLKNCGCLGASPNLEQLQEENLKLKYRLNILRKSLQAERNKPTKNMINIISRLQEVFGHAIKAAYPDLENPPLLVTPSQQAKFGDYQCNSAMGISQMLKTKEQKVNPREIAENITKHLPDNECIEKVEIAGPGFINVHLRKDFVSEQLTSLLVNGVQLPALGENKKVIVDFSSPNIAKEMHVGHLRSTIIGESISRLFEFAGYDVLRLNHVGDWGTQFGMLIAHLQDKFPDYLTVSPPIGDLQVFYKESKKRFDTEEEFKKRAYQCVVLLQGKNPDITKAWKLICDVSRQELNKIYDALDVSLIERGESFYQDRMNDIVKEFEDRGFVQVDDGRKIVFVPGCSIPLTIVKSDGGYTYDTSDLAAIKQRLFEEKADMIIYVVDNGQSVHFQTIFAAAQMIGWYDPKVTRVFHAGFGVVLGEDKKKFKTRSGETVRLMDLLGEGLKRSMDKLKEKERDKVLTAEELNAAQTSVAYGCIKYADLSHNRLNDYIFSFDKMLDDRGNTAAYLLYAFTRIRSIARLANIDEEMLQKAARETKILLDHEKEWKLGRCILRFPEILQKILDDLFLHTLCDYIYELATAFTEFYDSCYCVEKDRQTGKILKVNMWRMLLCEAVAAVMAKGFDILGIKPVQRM

Experiment [6] has as its target T6, HeLa cell extract proteins (Homo sapiens, UniProt Q9H000).
T6 construct: endogenous in cells; host or cells: HeLa cell extract
T6 sequence (Q9H000 1-416): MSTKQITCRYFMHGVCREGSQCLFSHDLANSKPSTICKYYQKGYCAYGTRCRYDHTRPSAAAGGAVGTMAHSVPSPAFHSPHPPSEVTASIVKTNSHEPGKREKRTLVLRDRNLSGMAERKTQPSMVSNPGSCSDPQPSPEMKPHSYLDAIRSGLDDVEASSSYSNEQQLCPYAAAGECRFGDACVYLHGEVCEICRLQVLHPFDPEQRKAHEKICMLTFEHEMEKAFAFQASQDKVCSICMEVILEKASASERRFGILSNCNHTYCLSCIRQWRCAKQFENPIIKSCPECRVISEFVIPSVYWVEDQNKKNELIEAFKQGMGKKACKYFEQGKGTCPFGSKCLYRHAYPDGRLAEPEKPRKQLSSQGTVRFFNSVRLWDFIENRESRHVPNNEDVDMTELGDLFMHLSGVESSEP

Where [7] appears, read: HeLa, protein MKRN2 (MAKORIN-2).

Like-named read-outs stand apart in the source and are kept apart here.

T2 sequence (P07355 whole entry): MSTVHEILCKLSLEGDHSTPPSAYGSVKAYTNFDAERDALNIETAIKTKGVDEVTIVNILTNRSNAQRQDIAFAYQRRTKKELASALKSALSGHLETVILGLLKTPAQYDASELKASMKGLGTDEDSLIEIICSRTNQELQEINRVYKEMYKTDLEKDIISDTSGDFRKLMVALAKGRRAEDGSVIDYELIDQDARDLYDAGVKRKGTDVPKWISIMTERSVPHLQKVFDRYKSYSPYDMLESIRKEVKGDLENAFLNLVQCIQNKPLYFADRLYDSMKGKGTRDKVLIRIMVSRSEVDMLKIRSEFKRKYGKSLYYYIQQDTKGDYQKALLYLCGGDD

Consider `Nc1nc2c(c(=O)[nH]1)N(C=O)C(CNc1ccc(C(=O)N[C@@H](CCC(=O)O)C(=O)O)cc1)CN2` (stereo partly drawn) [LEU, leucovorin], for which the “fold changes relative to vehicle control” value in experiment [1] (HeLa, protein COPB1) came out at 0.87; in experiment [2] (HeLa, protein ANXA2), 1; in experiment [3] (HeLa, protein MTHFD2L) it was 0.9; in experiment [4] (HeLa, protein ARFGEF2), 1.01; in experiment [5] (HeLa, captured protein RARS), 0.97; in experiment [6] (setting [7]) it was 1.02.
As for `Nc1nc2[nH]cc(CCc3ccc(C(=O)N[C@@H](CCC(=O)O)C(=O)O)cc3)c2c(=O)[nH]1` [PTX, pemetrexed], the “fold changes relative to vehicle control” value is 0.84 in experiment [1]; 1.1 in experiment [2]; 0.9 in experiment [3]; 1.01 in experiment [4]; 0.93 in experiment [5]; 0.91 in experiment [6].
As for `CCCCCCOc1ccc(Cc2cnc(N)nc2N)cc1` [compound 1], the “fold changes relative to vehicle control” value is recorded as 0.97 in experiment [1] (HeLa, protein COPB1); 1.18 in experiment [2] (protein ANXA2, HeLa); 0.3 in experiment [3] (HeLa, protein MTHFD2L); 1.04 in experiment [4] (HeLa, protein ARFGEF2); 0.9 in experiment [5] (protein RARS, HeLa); 0.9 in experiment [6] (captured protein MKRN2, HeLa).
For the compound `CCCCCCOc1cccc(Cc2cnc(N)nc2N)c1` [compound 2], the “fold changes relative to vehicle control” value stood at 1.07 in experiment [1] (HeLa, protein COPB1); 1.87 in experiment [2] (protein ANXA2, HeLa); 0.89 in experiment [3] (HeLa, protein MTHFD2L); 1.11 in experiment [4] (HeLa, protein ARFGEF2); 1.19 in experiment [5] (protein RARS, HeLa); 0.9 in experiment [6] (captured protein MKRN2, HeLa).
For the compound `Nc1nc2cccc(-c3ccccc3)c2n1Cc1ccc(Cl)c(Cl)c1` [compound 3], the “fold changes relative to vehicle control” value was found to be 1.17 in experiment [1] (HeLa, protein COPB1); 0.9 in experiment [2] (protein ANXA2, HeLa); 1.07 in experiment [3] (HeLa, protein MTHFD2L); 0.95 in experiment [4] (HeLa, protein ARFGEF2); 0.94 in experiment [5] (protein RARS, HeLa); 0.89 in experiment [6] (captured protein MKRN2, HeLa).
As to `NCCOCCOCC(=O)Nc1nc2ncc(CNc3ccc(C(=O)NC(CCC(=O)O)C(=O)O)cc3)nc2c(=O)[nH]1` (stereo not drawn) [compound 6], the “fold changes relative to vehicle control” value in experiment [1] (HeLa, protein COPB1) is given as 0.92; in experiment [2] (HeLa, protein ANXA2), 1.32; in experiment [3] (HeLa, protein MTHFD2L) it was 0.97; in experiment [4] (HeLa, protein ARFGEF2), 1.15; in experiment [5] (HeLa, captured protein RARS), 0.99; in experiment [6] (setting [7]), 0.92.
Regarding `NCCCNc1ccc(C(=O)NC(CCC(=O)O)C(=O)O)cc1` (stereo not drawn) [compound 7], the “fold changes relative to vehicle control” value in experiment [1] (HeLa, protein COPB1) was determined as 0.97; in experiment [2] (HeLa, protein ANXA2) it was 0.97; in experiment [3] (HeLa, protein MTHFD2L), 1; in experiment [4] (HeLa, protein ARFGEF2) it was 1.17; in experiment [5] (HeLa, captured protein RARS), 0.96; in experiment [6] (setting [7]), 0.98.
